Here are results for seven compounds from patent US6482921B1, “Uridyl peptide antibiotic (UPA) derivatives, their synthesis and use” (Essential Therapeutics, Inc., priority 1999, dated 2002).

In brackets after ≈: the same amount, converted by molar mass. Some results are limits rather than exact numbers.

Common to all, as to format: cell-based
In assay [1] the test system is Pseudomonas aeruginosa PAM 1020. Description: MIC broth microdilution, P. aeruginosa PAM 1020 (wild type). The note with it: P. aeruginosa PAM 1020.
For assay [2], the system named is Pseudomonas aeruginosa PAM 1154. Put plainly: MIC broth microdilution, P. aeruginosa PAM 1154 (OprM::Hg). The note with it: P. aeruginosa PAM 1154 OprM::Hg.
The subject of assay [3] is Pseudomonas aeruginosa PAM 1135. Put plainly: MIC broth microdilution, P. aeruginosa PAM 1135 (high level UPA resistance). The conditions noted are these: P. aeruginosa PAM 1135 UPA1^r.
Assay [4] deals with Pseudomonas aeruginosa PAM 1323. Put plainly: MIC broth microdilution, P. aeruginosa PAM 1323 (medium level UPA resistance).
The test system of another assay is Escherichia Coli MC 4100. Description: MIC broth microdilution, E. coli MC 4100 (wild type). The note with it: E. coli MC 4100.
Assay [5] deals with Escherichia Coli MC 4100 AcrAB. Put plainly: MIC broth microdilution, E. coli MC 4100 AcrAB (ΔAcrAB). The conditions noted are these: E. coli AcrAB.
Assay [6] relates to Escherichia Coli MC 4100 AcrAB UPA3r. Put plainly: MIC broth microdilution, E. coli MC 4100 AcrAB UPA3r (ΔAcrAB, UPA resistant). The note with it: E. coli AcrAB UPA3^r.
The test system of assay [7] is Staphylococcus aureus ATCC 29213. Put plainly: MIC broth microdilution, S. aureus ATCC 29213 (wild type). The note with it: S. aureus ATCC 29213.
Assay [8] concerns Staphylococcus aureus 8325-4. Put plainly: MIC broth microdilution, S. aureus 8325-4 (wild type). The note with it: S. aureus 8325-4.
Assay [9] has as its system Pasteurella multocida pm002. Description: MIC broth microdilution, P. multocida pm002 (wild type).

Consider `CSCCC(N)C(=O)N(C)C(C)C(NC(=O)C(CCSC)NC(=O)NC(Cc1c[nH]c2ccccc12)C(=O)O)C(=O)NCC1CC(O)C(n2ccc(=O)[nH]c2=O)O1` [Compound 162, 1-[5′-[(2S,3S)-N^2-[N-[[(1S)-1-Carboxy-2-indol-3-ylethyl]carbamoyl]-L-methionyl]-N^3-L-methionyl-N^3-methyl-2,3-diaminobutyramido]-3′,5′-dideoxy-α-L-arabinofuranosyl]uracil], for which the “MIC (μg/ml) Broth microdilution” value in assay [1] was 64 µg/mL (≈ 76.7 µM); in assay [2] it was 16 µg/mL (≈ 19.2 µM); in [3], 256 µg/mL (≈ 307 µM); in assay [4] it was 256 µg/mL (≈ 307 µM); in the assay with Escherichia Coli MC 4100, 512 µg/mL (≈ 614 µM); in assay [5] it was 16 µg/mL (≈ 19.2 µM). The “MIC (μg/ml) Broth microdilution” value was 512 µg/mL (≈ 614 µM) in [6], over 512 µg/mL in [7], over 512 µg/mL in [8] and 512 µg/mL (≈ 614 µM) in [9].
As to `CC(NC(=O)NC(Cc1c[nH]c2ccccc12)C(=O)O)C(=O)NC(C(=O)NCC1CC(O)C(n2ccc(=O)[nH]c2=O)O1)C(C)N(C)C(=O)CN` [Compound 121, 1-[5′1-[(2S,3S)-N^2-[N-[[(1S)-1-Carboxy-2-indol-3-ylethyl)carbamoyl]-L-alanyl]-N^3-glycyl-N^3-methyl-2,3-diaminobutyramido]-3′,5′-dideoxy-α-L-arabinofuranosyl]uracil], the “MIC (μg/ml) Broth microdilution” value is 64 µg/mL (≈ 91.5 µM) in assay [1]; 4 µg/mL (≈ 5.72 µM) in assay [2]; over 512 µg/mL in assay [3]; over 512 µg/mL in [4]; over 512 µg/mL against Escherichia Coli MC 4100; 2 µg/mL (≈ 2.86 µM) in assay [5]. The “MIC (μg/ml) Broth microdilution” value in [6] was 16 µg/mL (≈ 22.9 µM); in assay [7], over 512 µg/mL; in assay [8], over 512 µg/mL; in assay [9] it was over 512 µg/mL.
For the compound `C[C@H](N)C(=O)N(C)[C@@H](C)[C@H](NC(=O)[C@H](Cc1ccc(C(F)(F)F)cc1)NC(=O)N[C@@H](Cc1ccc(O)cc1)C(=O)O)C(=O)NC[C@H]1C[C@@H](O)[C@H](n2ccc(=O)[nH]c2=O)O1` [Compound 145, 1-[5′-[(2S,3S)-N^3-L-Alanyl-N^2-[N-[[(1S)-1-carboxy-4-hydroxyphenethyl]carbamoyl]-L-4-(trifluoromethyl)phenylalanyl]-N^3-methyl-2,3-diaminobutyramido]-3′,5′-dideoxy-α-L-arabinofuranosyl]uracil], the “MIC (μg/ml) Broth microdilution” value in [1] was 256 µg/mL (≈ 307 µM); in [2], 32 µg/mL (≈ 38.3 µM); in assay [3], over 512 µg/mL; in [4], over 512 µg/mL; in the assay on Escherichia Coli MC 4100, 512 µg/mL (≈ 613 µM); in [5], 4 µg/mL (≈ 4.79 µM). Besides, the “MIC (μg/ml) Broth microdilution” value in assay [6] is 128 µg/mL (≈ 153 µM); in assay [7] it was over 512 µg/mL; in [8], over 512 µg/mL; in assay [9], 512 µg/mL (≈ 613 µM).
For the compound `CSCCC(NC(=O)NC(Cc1c[nH]c2ccccc12)C(=O)O)C(=O)NC(C(=O)NCC1CC(O)C(n2ccc(=O)[nH]c2=O)O1)C(C)N(C)C(=O)C(N)Cc1ccc(F)cc1` [Compound 110, 1-[5′-[(2S,3S)-N^2-[N-[[(1S)-1-Carboxy-2-indol-3-ylethyl]carbamoyl]-L-methionyl]-N^3-L-4-fluorophenylalanyl-N^3-methyl-2,3-diaminobutyramido]-3′,5′-dideoxy-α-L-arabinofuranosyl]uracil], the “MIC (μg/ml) Broth microdilution” value in assay [1] worked out at 64 µg/mL (≈ 73.7 µM); in assay [2], 32 µg/mL (≈ 36.9 µM); in [3], 256 µg/mL (≈ 295 µM); in assay [4], 256 µg/mL (≈ 295 µM); with Escherichia Coli MC 4100, 512 µg/mL (≈ 590 µM); in assay [5], 16 µg/mL (≈ 18.4 µM). Moreover, the “MIC (μg/ml) Broth microdilution” value in [6] was 512 µg/mL (≈ 590 µM); in assay [7], over 512 µg/mL; in assay [8], over 512 µg/mL; in assay [9] it was 512 µg/mL (≈ 590 µM).
`CC(C(NC(=O)C(Cc1ccc(F)cc1)NC(=O)NC(Cc1ccc(O)cc1)C(=O)O)C(=O)NCC1CC(O)C(n2ccc(=O)[nH]c2=O)O1)N(C)C(=O)c1cccc(N)c1` [Compound 131, 1-[5′-[(2S,3S)-N^3-3-Aminobenzoyl-N^2-[N-[[(1S)-1-carboxy-4-hydroxyphenethyl]carbamoyl]-L-4-fluorophenylalanyl]-N^3-methyl-2,3-diaminobutyramido]-3′,5′-dideoxy-α-Larabinofuranosyl]uracil]: the “MIC (μg/ml) Broth microdilution” value was 512 µg/mL (≈ 615 µM) in assay [1]; 512 µg/mL (≈ 615 µM) in [2]; over 512 µg/mL in [3]; over 512 µg/mL in assay [4]; over 512 µg/mL in the assay with Escherichia Coli MC 4100; 16 µg/mL (≈ 19.2 µM) in assay [5]. Also, the “MIC (μg/ml) Broth microdilution” value was 512 µg/mL (≈ 615 µM) in assay [6], 512 µg/mL (≈ 615 µM) in assay [7], over 512 µg/mL in assay [8] and over 512 µg/mL in assay [9].
With `CC(C(NC(=O)C(Cc1ccccc1)NC(=O)NC(Cc1c[nH]c2ccccc12)C(=O)O)C(=O)NCC1CC(O)C(n2ccc(=O)[nH]c2=O)O1)N(C)C(=O)C(N)Cc1ccc(O)cc1` [Compound 163, 1-[5′-[(2S,3S)-N^2-[N-[[(1S)-1-Carboxy-2-indol-3-ylethyl]carbamoyl]-L-phenylalanyl]-N^3-L-tyrosyl-N^3-methyl-2,3-diaminobutyramido]-3′,5′-dideoxy-α-L-arabinofuranosyl]uracil], the “MIC (μg/ml) Broth microdilution” value amounted to 16 µg/mL (≈ 18.1 µM) in assay [1]; 16 µg/mL (≈ 18.1 µM) in assay [2]; 256 µg/mL (≈ 290 µM) in [3]; 256 µg/mL (≈ 290 µM) in assay [4]; 512 µg/mL (≈ 581 µM) against Escherichia Coli MC 4100; 4 µg/mL (≈ 4.54 µM) in assay [5]. Besides, the “MIC (μg/ml) Broth microdilution” value in [6] is 512 µg/mL (≈ 581 µM); in [7] it was over 512 µg/mL; in assay [8], over 512 µg/mL; in assay [9], 256 µg/mL (≈ 290 µM).
For the compound “1-[5′-[(2S,3S)-N^2-[N-[[(1S)-1-Carboxy-2-indol-3-ylethyl]carbamoyl]-L-alanyl]-N^3-L-3-hydroxyphenylalanyl-N^3-methyl-2,3-diaminobutyramidol-3′,5′-dideoxy-α-L-arabinofuranosyl]uracil [Compound 103]”, the “MIC (μg/ml) Broth microdilution” value in assay [1] is 16 µg/mL; in assay [2], 8 µg/mL; in assay [3] it was over 512 µg/mL; in [4], 512 µg/mL; with Escherichia Coli MC 4100 it was 512 µg/mL; in [5], 2 µg/mL. In addition, the “MIC (μg/ml) Broth microdilution” value in [6] was 32 µg/mL; in assay [7] it was 512 µg/mL; in [8] it was 256 µg/mL; in assay [9] it was 256 µg/mL.
